These results are taken from US8148371B2, “Adenine compound and use thereof” (Dainippon Sumitomo Pharma Co., Ltd., priority 2002, dated 2012).

Marks after values point to notes of the source that are not given here.

One data set deals with cells of mouse spleen. Kind of data set: cells. It counts as cell-based, C3H/HeJ mouse. The settings on record: Mus musculus, 24 h, read-out: Minimum effective concentration (interferon inducing activity).
In a further data set the test system is cells of rat spleen. Kind of data set: cells. It counts as cell-based, SD rat. The following applies: 24 h, read-out: Minimum effective concentration (interferon inducing activity).
The nature of data set [1]: Metabolic stability on liver S9 of rat. The settings on record: rat liver S9, test compound 1 μM, 37° C.
Description: The compound of the present invention is added to liver S9 solution, and the mixture is incubated at 37±0.5° C. for 5 minutes to 2 hours. By quantitatively analyzing at the definite interval the amount of the compound of the present invention remaining in the liver S9 solution with HPLC (high performance liquid chromatography), etc., the constant of quenching velocity is calculated and the half life is calculated.
The reaction on river S9 of a rat was carried out on a 96-well plate by using a robot for screening by Tecan Company. S9 solution was prepared by adding to 10 ml of liver S9 of a rat, 20 ml of 250 mM Kpi (pH 7.4) and 20 ml of deionized water. Cofactor solution was prepared by dissolving NADPH (220 mg) in deionized water (40.5 ml) to give finally a 6 mM solution. IS (Internal Standard) solution was prepared by adding 300 μL of IS solution (1 mM DMSO solution) to 30 ml of acetonitrile solution (100 times dilution). The test compound (1 μM DMSO solution) was dissolved in an incubator at 37° C., 35 μL of it was poured into each well of a 96-well plate (24 samples/plate and then, plates (a sample plate, a 96 well-plate for dilution, deep well plates for reaction and recovering, a plate for extraction of the solid phase) and the test samples (S9 solution, Cofactor solution, IS (Internal Standard) solution, Stop solution, acetonitrile for elution) were set to the specified position in the booth of the robot. The reaction started (the concentration of the test compound was 1 μM) and the mixture was incubated at 37° C. under stirring. The solid phase was extracted and at the same time the internal standard for analysis was added. To the recovered sample (200 μL/well) was added 50 μL of acetonitrile per each well and to 2 plates of FALCON Deep well were poured 100 μL of the solution per well. By subjecting to the LC/MS analysis, the chromatogram of the test sample and the internal standard were described and the peak area was calculated. And then, the stability (residual rate after reaction) was calculated by the internal standard method.
The next data set has as its system plasma esterase. The following applies: rat plasma, test compound 1 μM (*), 37° C., 15 minutes.

Description for plasma esterase: The compound of the present invention is added to the serum solution, and the mixture is incubated at 37±0.5° C. for 5 minutes to 2 hours. By quantitatively analyzing at the definite interval the amount of the compound of the present invention remaining in the serum solution with HPLC (high performance liquid chromatography), etc., the constant of quenching velocity calculated and the half life is calculated.
The serum herein means the supernatant fraction obtained by excluding hemocytes and blood coagulation factor from blood by centrifugation, etc. The serum diluted with buffer, etc. can be used.
The metabolic stability of the test compound was presented by the residual amount (%) per the concentration of pre-metabolization.

As to `CCCCOc1nc(N)c2nc(O)n(Cc3cccc(C(=O)O)c3)c2n1` [Comparative example 1, 2-Butoxy-8-hydroxy-9-(3-carboxybenzyl)adenine, reference compound], the figures for the minimal effective concentration with cells of mouse spleen and in the data set on cells of rat spleen were 0.003 µM and 0.01 µM, respectively.

Turning to `Nc1nc(SCC(=O)O)nc2c1nc(O)n2Cc1ccccc1` [Comparative example 12, 9-Benzyl-8-hydroxy-2-(calboxylmethyl)thioadenine, reference compound], the results for the minimal effective concentration in the data set with cells of mouse spleen and with cells of rat spleen were 10 µM and 0.3 µM, respectively.

For `CCCCOc1nc(N)c2nc(O)n(Cc3ccc(CC(=O)O)cc3)c2n1` [Comparative example 6, 2-Butoxy-8-hydroxy-9-(4-carboxymethylbenzyl)adenine, reference compound], the minimal effective concentration in the data set with cells of mouse spleen came to 0.03 µM; in the data set with cells of rat spleen it was 0.01 µM.

Take `CCCCOc1nc(N)c2nc(O)n(Cc3cccc(CC(=O)OCCF)c3)c2n1` [Example 70, 2-Butoxy-8-hydroxy-9-{3-(2-fluoroethoxycarbonyl)methylbenzyl}adenine]: the minimal effective concentration in the data set on cells of rat spleen came to 0.001 µM. Moreover, the figures for the Residual rate (in data set [1]; in the data set with plasma esterase) were 16% and 0* %, respectively.

Regarding `CCCCOc1nc(N)c2nc(O)n(Cc3ccc(CC(=O)OCC)cc3)c2n1` [Example 68, 2-Butoxy-8-hydroxy-9-(4-ethoxycarbonylmethylbenzyl)adenine], the minimal effective concentration in the data set on cells of rat spleen is 0.0003 µM. The Residual rate in data set [1] is 13%; in the data set on plasma esterase it was 0* %.

With `Cc1ccc(Cn2c(O)nc3c(N)nc(NCCO)nc32)cn1` [Comparative example 10, 8-Hydroxy-2-(2-hydroxyethylamino)-9-{(6-methyl-3-pyridyl)methyl}adenine, reference compound], the minimal effective concentration in the data set on cells of mouse spleen is 1 µM.

On to `Cc1ccc(Cn2c(O)nc3c(N)nc(OCCO)nc32)cn1` [Comparative example 11, 8-Hydroxy-2-(2-hydroxyethoxy)-9-{(6-methyl-3-pyridyl)methyl}adenine, reference compound], for which the minimal effective concentration with cells of mouse spleen came to 0.1 µM.

For `Nc1nc(SCCC(=O)O)nc2c1nc(O)n2Cc1ccccc1` [Comparative example 13, 9-Benzyl-8-hydroxy-2-(2-calboxylethyl)thioadenine, reference compound], the minimal effective concentration in the data set on cells of mouse spleen was 10 µM; in the data set on cells of rat spleen, 0.3 µM.

Turning to `CCCCOc1nc(N)c2[nH]c(=O)n(Cc3cccc(CC(=O)OCC)c3)c2n1` [Example 80, 2-Butoxy-9-(3-ethoxycarbonylmethylbenzyl)-8-hydroxyadenine], the minimal effective concentration in the data set with cells of rat spleen was found to be 0.001 µM. For the same compound, the values for the Residual rate (in data set [1]; in the data set on plasma esterase) were 0% and 0* %, respectively.

As to `Nc1nc(CC(=O)O)nc2c1nc(O)n2Cc1ccccc1` [Comparative example 8, 9-Benzyl-2-carboxymethyl-8-hydroxyadenine, reference compound], the minimal effective concentration in the data set with cells of mouse spleen came out at 10 µM; with cells of rat spleen, 3 µM.

On to `CCCCOc1nc(N)c2nc(O)n(Cc3ccc(C(=O)O)o3)c2n1` [Comparative example 3, 2-Butoxy-8-hydroxy-9-(5-carboxyfurfuryl)adenine, reference compound], for which the results for the minimal effective concentration with cells of mouse spleen and in the data set with cells of rat spleen were 0.1 µM and 0.01 µM, respectively.

Turning to `CCCCOc1nc(N)c2nc(O)n(Cc3ccc(CC(=O)SC)cc3)c2n1` [Example 74, 2-Butoxy-8-hydroxy-9-{4-(S-methylthiocarbonyl)methylbenzyl}adenine], the minimal effective concentration in the data set on cells of rat spleen amounted to 0.001 µM. Besides, the Residual rate in data set [1] was 7%; with plasma esterase, 0* %.

Regarding `COC(=O)CCc1nc(N)c2nc(O)n(Cc3ccccc3)c2n1` [Example 61, 9-Benzyl-8-hydroxy-2-(2-methoxycarbonylethyl)adenine], the minimal effective concentration with cells of rat spleen was found to be 0.003 µM. Further, the Residual rate in data set [1] was 0%; in the data set with plasma esterase, 0* %.
